Where two headings read alike, the source gives them in different places.
What was measured:
[1] = tested on: HeLa cervical adenocarcinoma; experiment: Cell proliferation assay (14C-thymidine incorporation), HeLa; assay type: cell-based; conditions: Homo sapiens, read-out: Inhibition of cell proliferation IC50
Procedure: (§1) The ability of a test compound to inhibit the proliferation of cell growth was determined by measuring incorporation of ^14C-labelled thymidine into newly synthesized DNA within the cells. This method was used on cell lines derived from carcinomas originating from several tissues such as HeLa cervical adenocarcinoma (American Type Culture Collection (ATCC), Virginia, Cat. #CCL-2), A375 malignant melanoma (ATCC CRL-1619), SK-OV-3 ovarian adenocarcinoma (ATCC HTB-77) HCT-116 colon carcinoma (CCL-247) and PC-3 prostate adenocarcinoma (ATCC CRL-1435). The method was also used on primary cells such as HUVEC endothelial cells (ATCC CRL-1730). In this way the effect of a compound on cell growth of cells with many different phenotypes can be determined. Cells were trypsinized and counted and 3000-8000 cells were added to each well of a 96-well CytoStar tissue culture treated scintillating microplate (Amersham #RPNQ0160) in complete medium in a volume of 100 μl. Cells were incubated for 24 hours in complete medium at 37° C. in an atmosphere containing 5% CO2.
(§2) Next, 1 μl of test compound in 100% DMSO was added to the wells of the plate. DMSO only was added to control wells. Cells were incubated for 24 more hours in complete medium at 37° C. in an atmosphere containing 5% CO2. Methyl ^14C-thymidine 56 mCi/mmol (NEN #NEC568 or Amersham #CFA532) was diluted in complete medium and 0.2 μCi/well was added to each well of the CytoStar plate in a volume of 20 μl. The plate was incubated for 24 hours at 37° C. plus 5% CO2 in drug plus ^14C-thymidine. The contents of the plate were discarded into a ^14C radioactive waste container by inverting the plate and the plate was washed twice with 200 μl PBS. 200 μl of PBS is then added to each well. The top of the plate was sealed with a transparent plate sealer and a white plate backing sealer (Packard #6005199) was applied to the bottom of the plate. The degree of Methyl ^14C-thymidine incorporation was quantified on a Packard Top Count.

HCT-116 colon carcinoma = experiment: Cell proliferation assay (14C-thymidine incorporation), HCT-116; assay type: cell-based; conditions: Homo sapiens, read-out: Inhibition of cell proliferation IC50
Procedure: as §1, §2

[2] = tested on: PC-3 prostate adenocarcinoma; experiment: Cell proliferation assay (14C-thymidine incorporation), PC-3; assay type: cell-based; conditions: Homo sapiens, read-out: Inhibition of cell proliferation IC50
Procedure: as §1, §2

MDA-MB-231 = experiment: Cell proliferation assay (14C-thymidine incorporation), MDA-MB-231; assay type: cell-based; conditions: Homo sapiens, read-out: Inhibition of cell proliferation IC50
Procedure: as §1, §2

[3] = tested on: SK-OV-3 ovarian adenocarcinoma; experiment: Cell proliferation assay (14C-thymidine incorporation), SK-OV-3; assay type: cell-based; conditions: Homo sapiens, read-out: Inhibition of cell proliferation IC50
Procedure: as §1, §2

[4] = biological target: T1, VEGF-R (vascular endothelial growth factor receptor-2) (Rattus norvegicus, UniProt O08775); experiment: VEGF-R screening assay (33P FlashPlate kinase assay); assay type: biochemical
T1 construct: polyhistidine (6xHis) (N)
Procedure: A kinase reaction mixture was prepared containing 50 mM Tris-HCl pH=8, 10 mM MgCl2, 0.1 mM NAPO4, 1 mM DTT, 10 μM ATP, 0.025 μM biotinylated peptide substrate and 0.8 μCuries per well ^33P-γ-ATP [2000-3000 Ci/mmol]. 70 μl of the kinase reaction mixture was dispensed into the well of a streptavidin coated FlashPlate™ (Cat. # SMP103, NEN, Boston, Mass.). Then 1 μl of test compound stock in 100% DMSO was added to the wells resulting in a final concentration of 1% DMSO in the reaction with a 100 μl final reaction volume. Next, soluble rat tyrosine kinase containing an N-terminal 6×HIS tag was diluted in 50 mM Tris-HCl pH=8.0, 0.1% BSA at a concentration of 5 ng per microliter and 30 μl (150 ng enzyme per test well) was added to each well to initiate the reaction. The reaction was incubated for one hour at 30° C. At the end of the 1-hour incubation, the reaction was terminated by aspirating the reaction mixture from the plate and washing the wells twice with PBS containing 100 mM EDTA. The PLCI biotinylated peptide substrate becomes immobilized on the Flashplate™ and the incorporation of ^33P-γ-ATP was measured by reading the plate on a scintillation counter. Inhibition of the enzymatic activity of the VEGF-R was measured by observing a reduced amount of ^33P-γ-ATP incorporated into the immobilized peptide.
(§3) The term n.d. means not tested.
(§4) Assays to test compound inhibition of other kinases were preformed using methods that measure the amount of phosphorylation of a biotinylated peptide substrate. Biotinylated peptide substrates were selected from the literature as appropriate for the enzyme being evaluated. The general procedure used to assay for kinase activity is as follows: A kinase reaction mix was prepared in 50 mM Tris-HCl pH=8, 10 mM MgCl2, 0.1 mM NaVO4, 1 mM DTT, 5-10 μM ATP, 0.25-1 μM biotinylated peptide substrate, 0.2-0.8 μCuries per well ^33P-γ-ATP [2000-3000 Ci/mmol]. Assay conditions vary slightly for each protein kinase, for example, insulin receptor kinase requires 10 mM MnCl2 for activity and Calmodulin-dependent protein kinase requires calmodulin and 2 mM CaCl2. The reaction mixture was dispensed into the wells of a streptavidin coated Flashplate and 1 μl drug stock in 100% DMSO was added to a 100 μl reaction volume resulting in a final concentration of 1% DMSO in the reaction. Enzyme was diluted in 50 mM Tris-HCl pH=8.0, 0.1% BSA and added to each well. The reaction was incubated for one hour at 30° C. in the presence of compound. After one hour the reaction mix was aspirated from the plate and the plate was washed with PBS containing 100 mM EDTA. The plate was read on a scintillation counter to determine ^33P-γ-ATP incorporated into the immobilized peptide. Test compounds were assayed in duplicate at 8 concentrations [100 tM, 10 μM, 1 μM, 100 nM, 10 nM, 1 nM, 100 μM, 10 μM]. A maximum and minimum signal for the assay was determined on each plate. The IC50 was calculated from the dose response curve of the percent inhibition of the maximum signal in the assay according to the formula [max signal−background/test compound signal−background (100)=% inhibition] by graphing the percent inhibition against the log concentration of test compound. Known inhibitor compounds appropriate for the kinase being assayed were also included on each plate.
VEGF-R (vascular endothelial growth factor receptor-2) is a fusion protein containing a polyhistidine tag at the N-terminus followed by amino acids 786-1343 of the rat VEGF-R2 kinase domain (GenBank Accession #U93306). CDK1 (cyclin dependent kinase 1) is isolated from insect cells expressing both the human CDK1 catalytic subunit and its positive regulatory subunit cyclin B (New England Biolabs, Beverly, Mass., Cat. #6020). CDK4 (cyclin dependent kinase 4) contains amino acids 769 to 921 of the mouse […] protein found in the GST-retinoblastoma protein construct (Santa Cruz Biotechnology, Santa Cruz, Calif.; Cat. #SC-4112). […]

FGF-R2 = FGF-R2 (Homo sapiens, UniProt P21802); experiment: FGF-R2 kinase selectivity assay; assay type: biochemical; conditions: Table 4 kinase selectivity; read-out: IC50, Assay 15 FGF-R2
Procedure: as §4

HER2 = HER2 (Homo sapiens, UniProt P04626); experiment: HER2 kinase selectivity assay; assay type: biochemical; conditions: Table 4 kinase selectivity; read-out: IC50, Assay 16 HER2
Procedure: as §4

[5] = biological target: T2, CDK1 (cyclin dependent kinase 1) / cyclin B (Homo sapiens, UniProt P06493); experiment: CDK1 kinase assay; assay type: biochemical
T2 construct: purchased New England Biolabs 6020; host or cells: insect cells
Procedure: as §3
as §4, with “Test compounds were assayed in duplicate at 8 concentrations [100 tM, 10 μM, 1 μM, 100 nM, 10 nM, 1 nM, 100 μM, 10 μM].” left out
VEGF-R (vascular endothelial growth factor receptor-2) is a fusion protein containing a polyhistidine tag at the N-terminus followed by amino acids 786-1343 of the rat VEGF-R2 kinase domain (GenBank Accession #U93306). CDK1 (cyclin dependent kinase 1) is isolated from insect cells expressing both the human CDK1 catalytic subunit and its positive regulatory subunit cyclin B (New England Biolabs, Beverly, Mass., Cat. #6020). CDK4 (cyclin dependent kinase 4) contains amino acids 769 to 921 of the mouse […] protein found in the GST-retinoblastoma protein construct (Santa Cruz Biotechnology, Santa Cruz, Calif.; Cat. #SC-4112). Insulin Receptor Kinase consists of residues 941-1313 of the cytoplasmic domain of the beta-subunit of the human insulin receptor (BIOMOL, Plymouth Meeting, Pa., Cat. #SE-195). Protein Kinase A is the catalytic subunit of cAMP dependent protein kinase-A purified from bovine heart (Upstate Biotech, Lake Placid, N.Y., Cat#14-114). PKC (protein kinase-C) is the gamma or beta isoform of the human protein produced in insect cells (BIOMOL, Plymouth Meeting, Pa., Cat. #SE-143). Casein Kinase 1 is a truncation at amino acid 318 of the C-terminal portion of the rat CK1 delta isoform produced in E.coli (New England Biolabs, Beverly, Mass., Cat. #6030). Casein Kinase 2 includes the alpha and beta subunits of the human CK2 protein produced in E.coli (New England Biolabs, Beverly, Mass., Cat. #6010). Calmodulin Kinase (calmodulin-dependent protein kinase 2) is a truncated version of the alpha subunit of the rat protein produced in insect cells (New England Biolabs, Beverly, Mass., Cat. #6060). Glycogen Synthase Kinase-3 is the beta isoform of the rabbit enzyme produced in E. coli (New England Biolabs, Beverly, Mass., Cat. #6040). MAP Kinase is the rat ERK-2 isoform containing a polyhistidine tag at the N-terminus produced in E. coli. and activated by phosphorylation with MEK1 prior to purification (BIOMOL, Plymouth Meeting, Pa., Cat. #SE-137). EGFR (epidermal growth factor receptor) is purified from human A431 cell membranes (Sigma, St. Louis, Mo., Cat.# E3641). […]

[6] = Tables 1-3, >10 or >100 = no 50% inhibition at highest dose tested, read-out: VEGF-R IC50
[7] = Tables 1-3, >10 or >100 = no 50% inhibition at highest dose tested, read-out: CDK IC50

T1 sequence (O08775 786-1343): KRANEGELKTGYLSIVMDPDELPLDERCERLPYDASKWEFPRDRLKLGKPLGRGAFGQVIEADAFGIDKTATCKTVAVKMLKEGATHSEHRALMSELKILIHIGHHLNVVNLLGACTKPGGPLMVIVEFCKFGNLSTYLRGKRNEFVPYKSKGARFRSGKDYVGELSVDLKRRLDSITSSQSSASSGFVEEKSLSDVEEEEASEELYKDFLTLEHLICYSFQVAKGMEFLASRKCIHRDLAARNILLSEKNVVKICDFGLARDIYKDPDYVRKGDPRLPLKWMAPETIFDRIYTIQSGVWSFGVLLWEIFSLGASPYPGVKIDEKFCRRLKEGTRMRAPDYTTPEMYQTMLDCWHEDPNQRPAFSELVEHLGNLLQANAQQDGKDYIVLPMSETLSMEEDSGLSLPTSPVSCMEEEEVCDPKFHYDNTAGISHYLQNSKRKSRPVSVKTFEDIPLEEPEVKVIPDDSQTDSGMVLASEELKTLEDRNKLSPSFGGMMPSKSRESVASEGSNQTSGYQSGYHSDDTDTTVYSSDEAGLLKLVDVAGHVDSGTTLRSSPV
T2 sequence (P06493 whole entry): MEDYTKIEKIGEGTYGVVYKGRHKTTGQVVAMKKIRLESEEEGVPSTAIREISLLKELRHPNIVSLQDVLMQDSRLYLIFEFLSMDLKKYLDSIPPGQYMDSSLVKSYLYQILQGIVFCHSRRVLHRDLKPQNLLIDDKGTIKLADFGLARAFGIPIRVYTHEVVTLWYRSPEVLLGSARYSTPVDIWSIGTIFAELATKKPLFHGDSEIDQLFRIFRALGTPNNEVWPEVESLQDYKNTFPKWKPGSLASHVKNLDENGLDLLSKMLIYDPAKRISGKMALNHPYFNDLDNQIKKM
T2 sequence (P14635 whole entry partner): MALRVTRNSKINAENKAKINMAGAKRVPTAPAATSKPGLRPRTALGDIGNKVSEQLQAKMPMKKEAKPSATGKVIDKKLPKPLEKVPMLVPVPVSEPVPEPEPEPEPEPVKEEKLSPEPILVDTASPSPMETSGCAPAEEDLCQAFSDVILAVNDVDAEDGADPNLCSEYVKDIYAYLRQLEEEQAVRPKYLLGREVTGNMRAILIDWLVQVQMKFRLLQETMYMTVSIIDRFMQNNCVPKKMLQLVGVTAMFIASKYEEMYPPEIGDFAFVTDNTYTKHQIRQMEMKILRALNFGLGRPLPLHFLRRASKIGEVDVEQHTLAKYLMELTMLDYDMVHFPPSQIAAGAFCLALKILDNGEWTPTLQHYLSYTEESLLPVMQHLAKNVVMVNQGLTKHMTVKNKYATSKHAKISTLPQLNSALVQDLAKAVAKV
Chain of HER2 (P04626 23-1255, species assumed): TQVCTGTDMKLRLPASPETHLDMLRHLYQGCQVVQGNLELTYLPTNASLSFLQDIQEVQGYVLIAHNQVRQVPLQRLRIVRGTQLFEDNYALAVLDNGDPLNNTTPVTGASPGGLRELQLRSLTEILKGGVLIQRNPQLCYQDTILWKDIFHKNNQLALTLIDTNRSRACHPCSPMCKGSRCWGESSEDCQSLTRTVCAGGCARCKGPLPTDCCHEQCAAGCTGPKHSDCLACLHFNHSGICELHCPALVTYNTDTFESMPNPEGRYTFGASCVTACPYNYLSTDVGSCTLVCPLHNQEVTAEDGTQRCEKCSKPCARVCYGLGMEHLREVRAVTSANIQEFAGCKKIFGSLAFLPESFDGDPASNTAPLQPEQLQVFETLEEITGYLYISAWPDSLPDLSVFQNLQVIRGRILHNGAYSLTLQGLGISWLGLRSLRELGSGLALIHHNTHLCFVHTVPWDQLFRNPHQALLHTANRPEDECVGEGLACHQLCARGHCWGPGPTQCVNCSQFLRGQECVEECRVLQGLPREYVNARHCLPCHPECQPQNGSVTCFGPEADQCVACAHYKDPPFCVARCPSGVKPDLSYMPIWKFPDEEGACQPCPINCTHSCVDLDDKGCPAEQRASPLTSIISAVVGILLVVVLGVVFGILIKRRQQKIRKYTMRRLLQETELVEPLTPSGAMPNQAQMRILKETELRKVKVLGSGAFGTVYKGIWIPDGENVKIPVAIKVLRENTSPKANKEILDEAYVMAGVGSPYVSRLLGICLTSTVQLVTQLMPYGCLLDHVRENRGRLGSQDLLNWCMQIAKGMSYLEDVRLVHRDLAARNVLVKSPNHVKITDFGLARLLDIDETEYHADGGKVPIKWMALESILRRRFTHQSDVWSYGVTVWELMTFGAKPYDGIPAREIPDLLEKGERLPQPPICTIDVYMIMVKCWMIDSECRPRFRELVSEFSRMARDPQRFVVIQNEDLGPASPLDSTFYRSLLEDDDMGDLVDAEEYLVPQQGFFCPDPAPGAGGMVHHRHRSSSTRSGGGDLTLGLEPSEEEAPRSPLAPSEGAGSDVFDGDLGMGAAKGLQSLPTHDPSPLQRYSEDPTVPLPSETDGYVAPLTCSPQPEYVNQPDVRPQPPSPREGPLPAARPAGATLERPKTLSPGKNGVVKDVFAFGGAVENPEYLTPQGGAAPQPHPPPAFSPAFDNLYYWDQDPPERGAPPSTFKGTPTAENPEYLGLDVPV
Chain of FGF-R2 (P21802 22-821, species assumed): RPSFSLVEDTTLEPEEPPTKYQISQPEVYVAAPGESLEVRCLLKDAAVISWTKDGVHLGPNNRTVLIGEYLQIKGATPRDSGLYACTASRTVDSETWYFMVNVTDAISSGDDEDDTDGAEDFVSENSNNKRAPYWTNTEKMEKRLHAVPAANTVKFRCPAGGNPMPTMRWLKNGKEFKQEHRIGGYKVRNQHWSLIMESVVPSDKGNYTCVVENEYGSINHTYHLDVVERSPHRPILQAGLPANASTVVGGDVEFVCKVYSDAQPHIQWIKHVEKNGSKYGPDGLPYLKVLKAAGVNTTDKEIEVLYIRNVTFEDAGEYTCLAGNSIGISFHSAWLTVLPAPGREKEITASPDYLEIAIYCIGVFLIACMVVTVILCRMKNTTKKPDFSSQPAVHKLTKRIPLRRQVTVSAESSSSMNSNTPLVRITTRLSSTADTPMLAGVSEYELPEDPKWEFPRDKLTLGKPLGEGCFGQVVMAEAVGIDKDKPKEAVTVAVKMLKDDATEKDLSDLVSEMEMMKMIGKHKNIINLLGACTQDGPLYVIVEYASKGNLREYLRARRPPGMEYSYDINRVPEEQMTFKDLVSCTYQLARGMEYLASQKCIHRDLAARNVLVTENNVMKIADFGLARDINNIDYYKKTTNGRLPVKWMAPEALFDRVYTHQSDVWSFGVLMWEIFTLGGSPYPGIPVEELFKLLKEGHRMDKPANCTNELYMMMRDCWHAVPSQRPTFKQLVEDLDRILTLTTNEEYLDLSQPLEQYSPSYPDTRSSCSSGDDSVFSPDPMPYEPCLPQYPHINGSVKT

Row | IC50 [4, 6] [nM] | IC50 [5, 7] [µM] | Compound | other results
1 | 138 to 365 | > 10 | OCCCNc1cnc(F)c(-c2cncc(Nc3cccc(Cl)c3)n2)c1 [Cmd 106] | –
2 | 1360 | > 10 | Nc1ncc(NCCCO)cc1-c1cncc(Nc2cccc(Cl)c2)n1 [Cmd 107] | –
3 | > 10000 | > 10 | CC(=O)Nc1ncc(NCCCO)cc1-c1cncc(Nc2cccc(Cl)c2)n1 [Cmd 109] | –
4 | > 10000 | > 10 | OCCCNc1cnc(Cl)c(-c2cncc(Nc3cccc(Cl)c3)n2)c1 [Cmd 110] | –
5 | > 10000 | > 10 | N#Cc1ncc(NCCCO)cc1-c1cncc(Nc2cccc(Cl)c2)n1 [Cmd 111] | –

Second part, the molecule before the results:

Row | Compound | IC50 [4, 6] [nM] | IC50 [5, 7] [µM] | other results
6 | Clc1cccc(Nc2cncc(-c3cncc(NCCCc4ccncc4)c3)n2)c1 [Cmd 71, N-(3-chlorophenyl)-6-[5-[[3-(4-pyridinyl)propyl]amino]-3-pyridinyl]-2-pyrazinamine] | – | – | IC50 [1]: 3.8 µM; IC50 (HCT-116 colon carcinoma): 3.29 µM; IC50 [2]: 3.2 µM; IC50 (MDA-MB-231): 1880 nM
7 | Clc1cccc(Nc2cncc(-c3cncc(NCCCn4cccn4)c3)n2)c1 [Cmd 75, N-(3-chlorophenyl)-6-[5-[[3-(1H-pyrazol-1-yl)propyl]amino]-3-pyridinyl]-2-pyrazinamine] | – | – | IC50 [1]: 12.5 µM; IC50 [2]: 5.34 µM; IC50 [3]: > 10 µM
8 | Clc1cccc(Nc2cncc(-c3cncc(NCCCn4cncn4)c3)n2)c1 [Cmd 76, N-(3-chlorophenyl)-6-[5-[[3-(1H-1,2,4-triazol-1-yl)propyl]amino]-3-pyridinyl]-2-pyrazinamine] | – | – | IC50 [1]: 4.94 µM; IC50 [3]: 12.9 µM
9 | Clc1cccc(Nc2cncc(-c3cncc(NCCCn4ccnc4)c3)n2)c1 [Cmd 77] | 30 | > 10 | IC50 ([4]; Table 4 kinase selectivity, read-out: IC50, Assay 1 VEGF-R): 30 nM; IC50 (FGF-R2): 221 nM; IC50 (HER2): 966 nM; IC50 ([5]; Table 4 kinase selectivity, 10 = approximate value, read-out: IC50, Assay 2 CDK1): ~10 µM
10 | O=C(CCCOc1ccccc1)Nc1cncc(-c2cncc(Nc3cccc(Cl)c3)n2)c1 [Cmd 100] | > 10000 | > 10 | –
11 | O=C(COCc1ccccc1)Nc1cncc(-c2cncc(Nc3cccc(Cl)c3)n2)c1 [Cmd 101] | > 10000 | > 10 | –
12 | CCOCC(=O)Nc1cncc(-c2cncc(Nc3cccc(Cl)c3)n2)c1 [Cmd 102] | 930 | > 10 | –
13 | COCCC(=O)Nc1cncc(-c2cncc(Nc3cccc(Cl)c3)n2)c1 [Cmd 103] | 590 | > 10 | –
14 | O=C(CO)Nc1cncc(-c2cncc(Nc3cccc(Cl)c3)n2)c1 [Cmd 105] | 410 | > 10 | –

Reference: patent US6710048B2, “Pyrazine derivatives as modulators of tyrosine kinases” (Ortho-McNeil Pharmaceutical, Inc., priority 2000, dated 2004)
